# Like-named read-outs stand apart in the source and are kept apart here.
# What was measured:
# [1] = phase I two-part drug-drug interaction study, plasma pharmacokinetics (Example 1); assay type: in vivo, human; conditions: male, human, plasma, oral
# Source text: The secondary objective was to provide additional information on the safety and tolerability of this dose regimen in healthy males.
# This was a single center, non-randomized, DDI study in 35 (Part 1) and 38 (Part 2) healthy males. The key inclusion criterion was males aged 18 to 55 years (inclusive). […] In Part 2, co-administration with omeprazole was studied. The study design is illustrated in FIG. 1.
# At least a 2-to 8-day washout occurred between each period to account for a minimum of 5 half-lives of the active moieties dosed in the preceding period.
# Blood samples were collected into 6 mL K,EDTA tubes and were processed within 30 minutes of collection. The resultant plasma was then frozen within 90 minutes of collection and stored at […] until shipment to the bioanalytical laboratory.
# For each comparison, PK parameters were natural log transformed and analyzed using mixed effect modeling with treatment included as a fixed effect and subject as a random effect. Adjusted geometric mean ratios (GMRs) and corresponding 90% CIs were calculated.
# CYP2C19 = CYP2C19 (Homo sapiens, UniProt P33261); experiment: enzyme inhibition, in vitro; assay type: in vitro ADME
# Chain of CYP2C19 (P33261 whole entry): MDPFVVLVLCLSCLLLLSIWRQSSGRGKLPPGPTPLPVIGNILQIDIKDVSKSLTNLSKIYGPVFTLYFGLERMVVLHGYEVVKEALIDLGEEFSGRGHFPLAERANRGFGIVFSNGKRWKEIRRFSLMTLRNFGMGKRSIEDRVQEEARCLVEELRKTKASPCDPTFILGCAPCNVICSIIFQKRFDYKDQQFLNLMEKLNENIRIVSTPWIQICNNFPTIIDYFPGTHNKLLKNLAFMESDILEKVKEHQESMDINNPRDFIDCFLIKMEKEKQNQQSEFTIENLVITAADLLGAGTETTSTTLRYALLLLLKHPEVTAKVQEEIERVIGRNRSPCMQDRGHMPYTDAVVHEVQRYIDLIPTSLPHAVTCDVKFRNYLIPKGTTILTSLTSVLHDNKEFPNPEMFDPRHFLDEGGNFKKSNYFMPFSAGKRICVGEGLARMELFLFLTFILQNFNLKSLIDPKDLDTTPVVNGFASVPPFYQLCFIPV
compound,measurement,setting,value
"CC(C)NC(=O)COc1cccc(-c2nc(Nc3ccc4[nH]ncc4c3)c3ccccc3n2)c1 [Belumosudil, 2-{3-[4-(1H-indazol-5-ylamino)-2-quinazolinyl]phenoxy}-N-(propan-2-yl) acetamide]",AUC from 0 to 24 h,"[1]; 200 mg belumosudil single dose + itraconazole, read-out: AUC0-24, geometric mean (geometric CV %)",10400 ng·h/mL
same,AUC(0-inf),"[1]; 200 mg belumosudil single dose + itraconazole, read-out: AUCinf, arithmetic mean (SD)",11900 ng·h/mL
same,AUC(0-inf),"[1]; 200 mg belumosudil single dose + itraconazole, read-out: AUCinf, geometric mean (geometric CV %)",11200 ng·h/mL
same,AUC(0-t),"[1]; 200 mg belumosudil single dose + itraconazole, read-out: AUClast, arithmetic mean (SD)",11600 ng·h/mL
same,AUC(0-t),"[1]; 200 mg belumosudil single dose + itraconazole, read-out: AUClast, geometric mean (geometric CV %)",10900 ng·h/mL
same,Cmax,"[1]; 200 mg belumosudil single dose + itraconazole, read-out: Cmax, arithmetic mean (SD)",2230 ng/mL
same,Cmax,"[1]; 200 mg belumosudil single dose + itraconazole, read-out: Cmax, geometric mean (geometric CV %)",2130 ng/mL
same,Tmax,"[1]; 200 mg belumosudil single dose + itraconazole, read-out: Tmax, median (range)",3 h
same,half-life,"[1]; 200 mg belumosudil single dose + itraconazole, read-out: t1/2, arithmetic mean (SD) (converted)",8.79 h
same,half-life,"[1]; 200 mg belumosudil single dose + itraconazole, read-out: t1/2, geometric mean (geometric CV %) (converted)",8.27 h
same,AUC from 0 to 24 h,"[1]; 200 mg belumosudil single dose + rabeprazole, read-out: AUC0-24, arithmetic mean (SD)",1730 ng·h/mL
same,AUC from 0 to 24 h,"[1]; 200 mg belumosudil single dose + rabeprazole, read-out: AUC0-24, geometric mean (geometric CV %)",1510 ng·h/mL
same,AUC(0-inf),"[1]; 200 mg belumosudil single dose + rabeprazole, read-out: AUCinf, arithmetic mean (SD)",1940 ng·h/mL
same,AUC(0-inf),"[1]; 200 mg belumosudil single dose + rabeprazole, read-out: AUCinf, geometric mean (geometric CV %)",1680 ng·h/mL
same,AUC(0-t),"[1]; 200 mg belumosudil single dose + rabeprazole, read-out: AUClast, arithmetic mean (SD)",1850 ng·h/mL
same,AUC(0-t),"[1]; 200 mg belumosudil single dose + rabeprazole, read-out: AUClast, geometric mean (geometric CV %)",1580 ng·h/mL
same,Cmax,"[1]; 200 mg belumosudil single dose + rabeprazole, read-out: Cmax, arithmetic mean (SD)",262 ng/mL
same,Cmax,"[1]; 200 mg belumosudil single dose + rabeprazole, read-out: Cmax, geometric mean (geometric CV %)",227 ng/mL
same,Tmax,"[1]; 200 mg belumosudil single dose + rabeprazole, read-out: Tmax, median (range)",5 h
same,half-life,"[1]; 200 mg belumosudil single dose + rabeprazole, read-out: t1/2, arithmetic mean (SD) (converted)",10.4 h
same,half-life,"[1]; 200 mg belumosudil single dose + rabeprazole, read-out: t1/2, geometric mean (geometric CV %) (converted)",7.8 h
same,AUC from 0 to 24 h,"[1]; 200 mg belumosudil single dose + rifampicin, read-out: AUC0-24, arithmetic mean (SD)",2630 ng·h/mL
same,AUC from 0 to 24 h,"[1]; 200 mg belumosudil single dose + rifampicin, read-out: AUC0-24, geometric mean (geometric CV %)",2490 ng·h/mL
same,AUC(0-inf),"[1]; 200 mg belumosudil single dose + rifampicin, read-out: AUCinf, arithmetic mean (SD)",2640 ng·h/mL
same,AUC(0-inf),"[1]; 200 mg belumosudil single dose + rifampicin, read-out: AUCinf, geometric mean (geometric CV %)",2500 ng·h/mL
same,AUC(0-t),"[1]; 200 mg belumosudil single dose + rifampicin, read-out: AUClast, arithmetic mean (SD)",2580 ng·h/mL
same,AUC(0-t),"[1]; 200 mg belumosudil single dose + rifampicin, read-out: AUClast, geometric mean (geometric CV %)",2440 ng·h/mL
same,Cmax,"[1]; 200 mg belumosudil single dose + rifampicin, read-out: Cmax, arithmetic mean (SD)",753 ng/mL
same,Cmax,"[1]; 200 mg belumosudil single dose + rifampicin, read-out: Cmax, geometric mean (geometric CV %)",712 ng/mL
same,Tmax,"[1]; 200 mg belumosudil single dose + rifampicin, read-out: Tmax, median (range)",3 h
same,half-life,"[1]; 200 mg belumosudil single dose + rifampicin, read-out: t1/2, arithmetic mean (SD) (converted)",2.36 h
same,half-life,"[1]; 200 mg belumosudil single dose + rifampicin, read-out: t1/2, geometric mean (geometric CV %) (converted)",2.17 h
same,Cmax,"[1]; 200 mg, 200 mg belumosudil BID alone, first dose, read-out: Cmax, arithmetic mean (SD)",1880 ng/mL
same,Cmax,"[1]; 200 mg, 200 mg belumosudil BID alone, first dose, read-out: Cmax, geometric mean (geometric CV %)",1790 ng/mL
same,Tmax,"[1]; 200 mg, 200 mg belumosudil BID alone, first dose, read-out: Tmax, median (range)",3 h
same,Cmax,"[1]; 200 mg, 200 mg belumosudil BID alone, second dose, read-out: Cmax, arithmetic mean (SD)",1870 ng/mL
same,Cmax,"[1]; 200 mg, 200 mg belumosudil BID alone, second dose, read-out: Cmax, geometric mean (geometric CV %)",1760 ng/mL
same,Tmax,"[1]; 200 mg, 200 mg belumosudil BID alone, second dose, read-out: Tmax, median (range)",15 h
same,AUC from 0 to 24 h,"[1]; 200 mg, 200 mg belumosudil BID alone, read-out: AUC0-24, arithmetic mean (SD)",17900 ng·h/mL
same,AUC from 0 to 24 h,"[1]; 200 mg, 200 mg belumosudil BID alone, read-out: AUC0-24, geometric mean (geometric CV %)",16800 ng·h/mL
same,AUC(0-inf),"[1]; 200 mg, 200 mg belumosudil BID alone, read-out: AUCinf, arithmetic mean (SD)",20100 ng·h/mL
same,AUC(0-inf),"[1]; 200 mg, 200 mg belumosudil BID alone, read-out: AUCinf, geometric mean (geometric CV %)",18800 ng·h/mL
same,AUC(0-t),"[1]; 200 mg, 200 mg belumosudil BID alone, read-out: AUClast, arithmetic mean (SD)",20300 ng·h/mL
same,AUC(0-t),"[1]; 200 mg, 200 mg belumosudil BID alone, read-out: AUClast, geometric mean (geometric CV %)",18900 ng·h/mL
same,half-life,"[1]; 200 mg, 200 mg belumosudil BID alone, read-out: t1/2, arithmetic mean (SD) (converted)",7.15 h
same,half-life,"[1]; 200 mg, 200 mg belumosudil BID alone, read-out: t1/2, geometric mean (geometric CV %) (converted)",6.86 h
same,AUC from 0 to 24 h,"[1]; 200 mg, 200 mg belumosudil single dose alone, read-out: AUC0-24, arithmetic mean (SD)",8830 ng·h/mL
same,AUC from 0 to 24 h,"[1]; 200 mg, 200 mg belumosudil single dose alone, read-out: AUC0-24, geometric mean (geometric CV %)",8430 ng·h/mL
same,AUC(0-inf),"[1]; 200 mg, 200 mg belumosudil single dose alone, read-out: AUCinf, arithmetic mean (SD)",9580 ng·h/mL
same,AUC(0-inf),"[1]; 200 mg, 200 mg belumosudil single dose alone, read-out: AUCinf, geometric mean (geometric CV %)",9080 ng·h/mL
same,AUC(0-t),"[1]; 200 mg, 200 mg belumosudil single dose alone, read-out: AUClast, arithmetic mean (SD)",9220 ng·h/mL
same,AUC(0-t),"[1]; 200 mg, 200 mg belumosudil single dose alone, read-out: AUClast, geometric mean (geometric CV %)",8750 ng·h/mL
same,Cmax,"[1]; 200 mg, 200 mg belumosudil single dose alone, read-out: Cmax, arithmetic mean (SD)",1850 ng/mL
same,Cmax,"[1]; 200 mg, 200 mg belumosudil single dose alone, read-out: Cmax, geometric mean (geometric CV %)",1770 ng/mL
same,Tmax,"[1]; 200 mg, 200 mg belumosudil single dose alone, read-out: Tmax, median (range)",3 h
same,half-life,"[1]; 200 mg, 200 mg belumosudil single dose alone, read-out: t1/2, arithmetic mean (SD) (converted)",9.28 h
same,half-life,"[1]; 200 mg, 200 mg belumosudil single dose alone, read-out: t1/2, geometric mean (geometric CV %) (converted)",7.89 h
same,Tmax,"[1]; coadministration of rabeprazole, read-out: delay of median Tmax",2 h
same,CYP2C19 inhibition,CYP2C19,inhibitor

# Source: US20240350493A1 (Kadmon Corporation, LLC, priority 2022, published 2024)
